Here are results for 23 molecules from patent US20090118274A1, “MONOCYCLIC AMINOPROPYL TETRAHYDRO-PYRAZOLO-PYRIDINE MODULATORS OF CATHEPSIN S” (priority 2007, published 2009).

Each structure is given as a SMILES string.

A word on the IC50: it is the concentration needed to halve the response being measured.

T1 sequence (P25774 115-331): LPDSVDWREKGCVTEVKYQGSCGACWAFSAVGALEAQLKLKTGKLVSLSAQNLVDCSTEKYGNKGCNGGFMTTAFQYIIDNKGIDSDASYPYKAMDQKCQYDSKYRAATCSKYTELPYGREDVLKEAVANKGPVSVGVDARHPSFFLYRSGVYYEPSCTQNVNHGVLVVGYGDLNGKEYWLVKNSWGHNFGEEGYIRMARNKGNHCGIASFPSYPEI

One test addresses T1, Recombinant human cathepsin S (CatS) (Homo sapiens, UniProt P25774).
T1 construct: made in house
Description: Recombinant human cathepsin S (CatS) fluorogenic substrate inhibition assay. The test is classed as biochemical.
Details: not given
As to the method: Recombinant human cathepsin S (CatS) was expressed in the baculovirus system and purified in one step with a thiopropyl-sepharose column. […] The assay is run in 150 mM sodium acetate pH 5.0 containing 1.5 mM DTT and 150 mM NaCl. […] Measurements are taken every min for 20 min. The rate is calculated from the slope of the increase in fluorescence and the percent inhibition is calculated from this.
With `CS(=O)(=O)N1CCc2c(c(-c3ccc(C(F)(F)F)c(CNC(=O)Oc4ccc(F)cc4)c3)nn2CC(O)CN2CCCC2)C1` (centres unmarked) [Example 213, {5-[1-(2-Hydroxy-3-pyrrolidin-1-yl-propyl)-5-methanesulfonyl-4,5,6,7-tetrahydro-1H-pyrazolo[4,3-c]pyridin-3-yl]-2-trifluoromethyl-benzyl}-carbamic acid 4-fluoro-phenyl ester], the IC50 was 560 nM.

The test is the same for the next values; noted with them: average of results obtained; substrate Z-Valine-Valine-Arginine-AMC 10 μM, pH 5.0; read-out: CatS IC50.
In the case of `CC(=O)NC1CCN(CC(O)Cn2nc(-c3ccc(C(F)(F)F)c(CNC(=O)c4ccc(F)cc4)c3)c3c2CCN(S(C)(=O)=O)C3)C1` (centres unmarked) [Example 93, N-(5-{1-[3-(3-Acetylamino-pyrrolidin-1-yl)-2-hydroxy-propyl]-5-methanesulfonyl-4,5,6,7-tetrahydro-1H-pyrazolo[4,3-c]pyridin-3-yl}-2-trifluoromethyl-benzyl)-4-fluoro-benzamide], the IC50 was 170 nM.

Take `CC(C)CC(=O)NCc1cc(-c2nn(CC(O)CN3CCC(N(C)C)CC3)c3c2CN(S(C)(=O)=O)CC3)ccc1C(F)(F)F` (centres unmarked) [Example 247, N-(5-{1-[3-(4-Dimethylamino-piperidin-1-yl)-2-hydroxy-propyl]-5-methanesulfonyl-4,5,6,7-tetrahydro-1H-pyrazolo[4,3-c]pyridin-3-yl}-2-trifluoromethyl-benzyl)-3-methyl-butyramide]: the 50% inhibitory concentration (IC50) stood at 420 nM.

With `Cc1ccc(C(=O)NCc2cc(-c3nn(CCCN4CCCC4)c4c3CN(S(C)(=O)=O)CC4)ccc2Cl)cc1` [Example 88, N-{2-Chloro-5-[5-methanesulfonyl-1-(3-pyrrolidin-1-yl-propyl)-4,5,6,7-tetrahydro-1H-pyrazolo[4,3-c]pyridin-3-yl]-benzyl}-4-methyl-benzamide], the IC50 turned out to be 740 nM.

As to `CC(C)CC(=O)NCc1cc(-c2nn(CC(O)CN3CCC(NC(=O)C(F)(F)F)C3)c3c2CN(S(C)(=O)=O)CC3)ccc1C(F)(F)F` (centres unmarked) [Example 280, N-[5-(1-{2-Hydroxy-3-[3-(2,2,2-trifluoro-acetylamino)-pyrrolidin-1-yl]-propyl}-5-methanesulfonyl-4,5,6,7-tetrahydro-1H-pyrazolo[4,3-c]pyridin-3-yl)-2-trifluoromethyl-benzyl]-3-methyl-butyramide], the IC50 is 360 nM.

For `CN(C)C1CCN(CC(O)Cn2nc(-c3ccc(C(F)(F)F)c(CNC(=O)c4ccc(F)cc4)c3)c3c2CCN(S(C)(=O)=O)C3)C1` (centres unmarked) [Example 26, N-(5-{1-[3-(3-Dimethylamino-pyrrolidin-1-yl)-2-hydroxy-propyl]-5-methanesulfonyl-4,5,6,7-tetrahydro-1H-pyrazolo[4,3-c]pyridin-3-yl}-2-trifluoromethyl-benzyl)-4-fluoro-benzamide], the IC50 amounted to 360 nM.

With `CS(=O)(=O)N1CCc2c(c(-c3ccc(C(F)(F)F)c(CNC(=O)c4ccc(O)cc4)c3)nn2CC(O)CN2CCC3(CCNC3=O)CC2)C1` (centres unmarked) [Example 141, 4-Hydroxy-N-(5-{1-[2-hydroxy-3-(1-oxo-2,8-diaza-spiro[4.5]dec-8-yl)-propyl]-5-methanesulfonyl-4,5,6,7-tetrahydro-1H-pyrazolo[4,3-c]pyridin-3-yl}-2-trifluoromethyl-benzyl)-benzamide], the 50% inhibitory concentration (IC50) is 50 nM.

On to `CC(=O)NC1CCN(CC(O)Cn2nc(-c3ccc(C(F)(F)F)c(CNC(=O)CC(C)C)c3)c3c2CCN(S(C)(=O)=O)C3)C1` (centres unmarked) [Example 278, N-(5-{1-[3-(3-Acetylamino-pyrrolidin-1-yl)-2-hydroxy-propyl]-5-methanesulfonyl-4,5,6,7-tetrahydro-1H-pyrazolo[4,3-c]pyridin-3-yl}-2-trifluoromethyl-benzyl)-3-methyl-butyramide], for which the IC50 is 380 nM.

In the case of `COC1CCC(C(=O)NCc2cc(-c3nn(CC(O)CN4CCCC4)c4c3CN(S(C)(=O)=O)CC4)ccc2C(F)(F)F)CC1` (centres unmarked) [Example 186, 4-Methoxy-cyclohexanecarboxylic acid 5-[1-(2-hydroxy-3-pyrrolidin-1-yl-propyl)-5-methanesulfonyl-4,5,6,7-tetrahydro-1H-pyrazolo[4,3-c]pyridin-3-yl]-2-trifluoromethyl-benzylamide], the IC50 was found to be 3100 nM.

With `CS(=O)(=O)N1CCc2c(c(-c3ccc(C(F)(F)F)c(CNC(=O)c4cccc(Cl)c4)c3)nn2CC(O)CN2CCCC2)C1` (centres unmarked) [Example 166, 3-Chloro-N-{5-[1-(2-hydroxy-3-pyrrolidin-1-yl-propyl)-5-methanesulfonyl-4,5,6,7-tetrahydro-1H-pyrazolo[4,3-c]pyridin-3-yl]-2-trifluoromethyl-benzyl}-benzamide], the IC50 amounted to 460 nM.

Turning to `COC1CCN(CC(O)Cn2nc(-c3ccc(Cl)c(CNC(=O)c4ccc(F)cc4)c3)c3c2CCN(S(C)(=O)=O)C3)CC1` (centres unmarked) [Example 75, N-(2-Chloro-5-{1-[2-hydroxy-3-(4-methoxy-piperidin-1-yl)-propyl]-5-methanesulfonyl-4,5,6,7-tetrahydro-1H-pyrazolo[4,3-c]pyridin-3-yl}-benzyl)-4-fluoro-benzamide], the IC50 was 140 nM.

In the case of `CC(C)N1CCN(CC(O)Cn2nc(-c3ccc(C(F)(F)F)c(CNC(=O)c4ccc(F)cc4)c3)c3c2CCN(S(C)(=O)=O)C3)CC1` (centres unmarked) [Example 20, 4-Fluoro-N-(5-{1-[2-hydroxy-3-(4-isopropyl-piperazin-1-yl)-propyl]-5-methanesulfonyl-4,5,6,7-tetrahydro-1H-pyrazolo[4,3-c]pyridin-3-yl}-2-trifluoromethyl-benzyl)-benzamide], the IC50 came to 400 nM.

As for `CC(=O)NC1CCN(CC(O)Cn2nc(-c3ccc(C(F)(F)F)c(CNC(=O)c4ccc(F)cc4)c3)c3c2CCN(S(C)(=O)=O)C3)CC1` (centres unmarked) [Example 140, N-(5-{1-[3-(4-Acetylamino-piperidin-1-yl)-2-hydroxy-propyl]-5-methanesulfonyl-4,5,6,7-tetrahydro-1H-pyrazolo[4,3-c]pyridin-3-yl}-2-trifluoromethyl-benzyl)-4-fluoro-benzamide], the half-maximal inhibitory concentration (IC50) came out at 50 nM.

With `CC(C)CC(=O)NCc1cc(-c2nn(CC(O)CN3CCC(O)CC3)c3c2CN(S(C)(=O)=O)CC3)ccc1C(F)(F)F` (centres unmarked) [Example 245, N-(5-{1-[2-Hydroxy-3-(4-hydroxy-piperidin-1-yl)-propyl]-5-methanesulfonyl-4,5,6,7-tetrahydro-1H-pyrazolo[4,3-c]pyridin-3-yl}-2-trifluoromethyl-benzyl)-3-methyl-butyramide], the concentration for half-maximal inhibition (IC50) was 270 nM.

For the molecule `CS(=O)(=O)N1CCc2c(c(-c3ccc(Cl)c(CNC(=O)c4ccc(F)cc4)c3)nn2CC(O)CN2CCC(F)CC2)C1` (centres unmarked) [Example 82, N-(2-Chloro-5-{1-[3-(4-fluoro-piperidin-1-yl)-2-hydroxy-propyl]-5-methanesulfonyl-4,5,6,7-tetrahydro-1H-pyrazolo[4,3-c]pyridin-3-yl}-benzyl)-4-fluoro-benzamide], the concentration for half-maximal inhibition (IC50) amounted to 190 nM.

In the case of `CS(=O)(=O)N1CCc2c(c(-c3ccc(C(F)(F)F)c(C(=O)Nc4ccccc4)c3)nn2CC(O)CN2CCCC2)C1` (centres unmarked) [Example 192, 5-[1-(2-Hydroxy-3-pyrrolidin-1-yl-propyl)-5-methanesulfonyl-4,5,6,7-tetrahydro-1H-pyrazolo[4,3-c]pyridin-3-yl]-N-phenyl-2-trifluoromethyl-benzamide], the IC50 worked out at 1600 nM.

For the molecule `CS(=O)(=O)N1CCc2c(c(-c3ccc(Cl)c(CNS(=O)(=O)c4ccc(Cl)c(Cl)c4)c3)nn2CCCN2CCCC2)C1` [Example 197, 3,4-Dichloro-N-{2-chloro-5-[5-methanesulfonyl-1-(3-pyrrolidin-1-yl-propyl)-4,5,6,7-tetrahydro-1H-pyrazolo[4,3-c]pyridin-3-yl]-benzyl}-benzenesulfonamide], the IC50 was 5400 nM.

Take `CS(=O)(=O)N1CCc2c(c(-c3ccc(C(F)(F)F)c(CNC(=O)c4ccc(F)cc4)c3)nn2CC(O)CN2CCC(CO)CC2)C1` (centres unmarked) [Example 89, 4-Fluoro-N-(5-{1-[2-hydroxy-3-(4-hydroxymethyl-piperidin-1-yl)-propyl]-5-methanesulfonyl-4,5,6,7-tetrahydro-1H-pyrazolo[4,3-c]pyridin-3-yl}-2-trifluoromethyl-benzyl)-benzamide]: the IC50 was found to be 90 nM.

Regarding `CC1(C)CCN(CCCn2nc(-c3ccc(C(F)(F)F)c(CNCc4ccc(F)cc4)c3)c3c2CCN(C(=O)CO)C3)CC1` [Example 297, 1-(1-[3-(4,4-Dimethyl-piperidin-1-yl)-propyl]-3-{3-[(4-fluoro-benzylamino)-methyl]-4-trifluoromethyl-phenyl}-1,4,6,7-tetrahydro-pyrazolo[4,3-c]pyridin-5-yl)-2-hydroxy-ethanone], the IC50 came out at 180 nM.

Consider `CS(=O)(=O)N1CCc2c(c(-c3ccc(C(F)(F)F)c(CNC(=O)c4ccc(F)cc4Cl)c3)nn2CC(O)CN2CCCC2)C1` (centres unmarked) [Example 63, 2-Chloro-4-fluoro-N-{5-[1-(2-hydroxy-3-pyrrolidin-1-yl-propyl)-5-methanesulfonyl-4,5,6,7-tetrahydro-1H-pyrazolo[4,3-c]pyridin-3-yl]-2-trifluoromethyl-benzyl}-benzamide], for which the IC50 is 250 nM.

With `Cc1ccc(C(=O)NCc2cc(-c3nn(CC(O)CN4CCCC4)c4c3CN(S(C)(=O)=O)CC4)ccc2C(F)(F)F)cc1` (centres unmarked) [Example 214], the IC50 worked out at 580 nM.

On to `CS(=O)(=O)N1CCc2c(c(-c3ccc(C(F)(F)F)c(CNC(=O)c4ccccc4Cl)c3)nn2CC(O)CN2CCCC2)C1` (centres unmarked) [Example 62, 2-Chloro-N-{5-[1-(2-hydroxy-3-pyrrolidin-1-yl-propyl)-5-methanesulfonyl-4,5,6,7-tetrahydro-1H-pyrazolo[4,3-c]pyridin-3-yl]-2-trifluoromethyl-benzyl}-benzamide], for which the IC50 is 220 nM.

Turning to `CC(C)=CC(=O)NCc1cc(-c2nn(CC(O)CN3CCC(C)(C)CC3)c3c2CN(S(C)(=O)=O)CC3)ccc1C(F)(F)F` (centres unmarked) [Example 28, 3-Methyl-but-2-enoic acid 5-{1-[3-(4,4-dimethyl-piperidin-1-yl)-2-hydroxy-propyl]-5-methanesulfonyl-4,5,6,7-tetrahydro-1H-pyrazolo[4,3-c]pyridin-3-yl}-2-trifluoromethyl-benzylamide], the IC50 turned out to be 60 nM.
